Source: PMC2918268 (Biochemical pharmacology, 2010)

What was measured:
Test in all cases: cell-free TR-FRET co-activator peptide displacement
Assay type in all cases: binding
Details in all cases: read-out: EC50
[1] = target: T1, estrogen-related receptor α (ERRα) (Homo sapiens, UniProt P11474)
T1 sequence (P11474 193-423 limits assumed): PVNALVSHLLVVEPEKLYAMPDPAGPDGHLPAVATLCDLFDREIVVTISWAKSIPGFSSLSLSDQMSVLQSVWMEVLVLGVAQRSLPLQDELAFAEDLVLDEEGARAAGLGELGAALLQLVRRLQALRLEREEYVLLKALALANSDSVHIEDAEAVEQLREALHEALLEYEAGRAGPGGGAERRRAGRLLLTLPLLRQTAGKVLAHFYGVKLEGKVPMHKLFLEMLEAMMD

ERβ = ERβ (Homo sapiens, UniProt Q92731)
ERα = target: T2, ERα (Homo sapiens, UniProt P03372)
T2 sequence (P03372 311-547 limits assumed): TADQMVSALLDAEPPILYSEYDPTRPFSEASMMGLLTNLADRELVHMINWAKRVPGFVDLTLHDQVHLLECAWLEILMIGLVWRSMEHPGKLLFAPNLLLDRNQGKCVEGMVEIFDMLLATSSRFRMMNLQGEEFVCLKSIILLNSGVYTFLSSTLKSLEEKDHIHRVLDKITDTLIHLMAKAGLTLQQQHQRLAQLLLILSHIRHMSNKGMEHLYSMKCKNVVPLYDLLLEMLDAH

Sequence of ERβ (Q92731 264-498 limits assumed): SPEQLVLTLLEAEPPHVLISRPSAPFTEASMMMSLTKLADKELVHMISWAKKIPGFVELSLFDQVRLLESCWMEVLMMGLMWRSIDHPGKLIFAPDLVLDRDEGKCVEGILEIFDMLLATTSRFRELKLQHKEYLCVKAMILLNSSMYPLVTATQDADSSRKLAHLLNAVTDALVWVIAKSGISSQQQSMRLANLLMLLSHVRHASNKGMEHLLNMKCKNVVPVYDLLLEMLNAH

IC50 [1]: 700 ± 100 nM | IC50 (ERβ): 500 ± 200 nM | IC50 (ERα): 200 ± 200 nM
SMILES: C[C@@H]1Cc2cc(O)ccc2[C@H]2CC[C@]3(C)/C(=C/COCCN(C)C)CC[C@H]3[C@H]12 [SR16388, 21-[2-(N,N-dimethylamino)ethyl]oxy-7a-methyl-19-norpregna-1,3,5(10),17(20)-tetraen-3-ol]
